Like-named read-outs stand apart in the source and are kept apart here.
Legend:
[1] = tested on: LPS-induced airway neutrophilia in rats; assay: LPS-induced airway neutrophil accumulation in rats; format: in vivo
Experimental: Non-fasted rats were dosed with either vehicle or the test compound by intra-tracheal administration (dose volume 100 μL) at time points T=−2 h, −8 h, or −12 h with respect to the start of LPS treatment. The LPS solution (0.3 mg/mL) was aerosolised using a De Vibliss ultrasonic nebuliser 2000 (7 mL during 30 min). At eight hr after LPS challenge, the trachea was cannulated and bronchoalveolar lavage fluid (BALF) extracted by infusing and then withdrawing PBS (1 mL) into the lungs via the tracheal catheter. This procedure was repeated to provide approximately 2 mL of lavage fluid.
Total cell numbers in the BALF samples were measured using a Countess automated cell counter (Invitrogen). Cytospin smears of the BALF samples were prepared by centrifugation at 1200 rpm for 2 min at RT and stained using a DiffQuik stain system (Dade Behring) for differential cell counts. Cells were counted using oil immersion microscopy. Data are expressed as neutrophil number of cells per mL of BALF (mean±S.E.M).

[2] = tested on: PBMCs; assay: Cytostim-induced cytokine production in PBMCs; format: cell-based; conditions: Homo sapiens, PBMC
Experimental: As a means of assessing PI3Kδ-dependent cell function, cytostim-induced IL-4, IL-5, IL-13 and IFNγ production in PBMCs were evaluated by Luminex multiplex assay. All healthy volunteers were recruited by Quintiles Limited (London, UK), and blood samples were delivered to Respivert Ltd. This study was approved by the local Ethics Committee, and all subjects gave written informed consent.
PBMC suspensions (200 μL; 2×10^6 cells/mL) were added to a 96-well plate. Cells were treated with either test compounds in neat DMSO or DMSO as vehicle (2 μL) and incubated at RT for 1 hr. Cytostim (Miltentyi Biotec, Surrey, UK) was introduced at a ratio of 1:50 and the cells were incubated for 20 hr (37° C.; 5% CO2). Plates were spun at 500×g for 5 min and the supernatant collected. A high sensitivity cytokine magnetic bead kit (#HSCYTMAG-60SK, Millipore, Watford, UK) was used to measure the four analytes (IL-4, IL-5, IL-13 and IFNγ) by Luminex as follows: The magnetic antibody beads were multiplexed and incubated in a 96-well plate with standard, media only or sample (50 μL) overnight with shaking at 4° C. After washing twice with Millipore wash buffer provided in the kit using a magnetic plate washer, the beads were incubated for 1 hr with detection antibody (50 μL) with shaking at RT. A streptavidin-phycoerythrin solution provided in the kit was added for 30 min with shaking at RT. After washing, the beads were re-suspended in sheath fluid (150 μL) and analysed immediately. The Luminex system was set up to count 50 beads and the amount of each analyte in the supernatant was calculated against a standard curve. The IC50 values were determined from concentration-inhibition curves using XL-Fit (IDBS, Guildford, UK)

[3] = tested on: LPS-induced airway neutrophilia in mice; assay: LPS-induced airway neutrophil accumulation in mice; format: in vivo, BALB/c mice
Experimental: Non-fasted BALB/c mice (6-8 weeks old) were dosed with vehicle or with test compound by intra-tracheal administration (dose volume 20 μL) at time points T=−2 hr, −8 hr, or −12 hr with respect to the start of LPS treatment. The LPS was prepared in a solution of 0.5 mg/mL and aerosolised using a De Vibliss ultrasonic nebuliser 2000 (7 mL during 30 min exposure). At eight hr after LPS challenge, the trachea was cannulated and bronchoalveolar lavage fluid (BALF) extracted by infusing and then withdrawing PBS (1 mL) into the lungs via the tracheal catheter. This procedure was repeated to give a yield of approximately 2 mL lavage fluid. Total cell numbers in the BALF samples were measured using a haemocytometer. Cytospin smears of the BALF samples were prepared by centrifugation at 1200 rpm for 2 min at RT and stained using a DiffQuik stain system (Dade Behring) for differential cell counts. Cells were counted using oil immersion microscopy. Data are expressed as neutrophil number of cells per mL of BALF (mean±S.E.M).

[4] = tested on: ovalbumin-induced airway eosinophilia and neutrophilia in ovalbumin sensitized mice; assay: Ovalbumin-induced airway eosinophil and neutrophil accumulation in mice; format: in vivo, BALB/c mice; conditions: 2 hr prior to final OVA challenge
Experimental: BALB/c mice (6-8 weeks old) were immunized with OVA (10 μg/mouse i.p.) on days 0 and 7. In order to elicit a local inflammatory response in the lung, mice were repeatedly challenged between days 13-15 with a nebulised solution of ovalbumin (10 mg/mL, 30 min exposure, De Vilibiss Ultraneb 2000). On day 17 each animal received via intra-tracheal administration of either vehicle or test compound 2 hr prior to the final OVA challenge. Animals were anaesthetized 8 hr later before undergoing a tracheotomy. BAL was obtained by instilling PBS (1 mL) into the lungs, which was then withdrawn. This procedure was repeated to provide approximately 2 mL of lavage fluid. Total cell numbers in the BALF samples were measured using a haemocytometer. Cytospin smears of the BALF samples were prepared by centrifugation at 200 rpm for 5 min at RT and stained using a DiffQuik stain system (Dade Behring) for differential cell counts. Cells were counted using oil immersion microscopy. Data is expressed as differential number of cells per mL of […] (mean±S.E.M).

[5] = 0.05 mg/mL intra-tracheal, pre-dose time 2 hr
[6] = 0.2 mg/mL intra-tracheal, pre-dose time 2 hr
[7] = 0.2 mg/mL intra-tracheal, pre-dose time 8 hr
[8] = 0.2 mg/mL intra-tracheal, pre-dose time 12 h
[9] = 1.0 mg/mL intra-tracheal, pre-dose time 2 hr

Structure (SMILES): COCCOCCOCC#Cc1cccc2nc(Cn3nc(-c4cc(O)cc(F)c4)c4c(N)ncnc43)n(Cc3ccccc3C(F)(F)F)c(=O)c12 [Compound (I), 2-((4-Amino-3-(3-fluoro-5-hydroxyphenyl)-1H-pyrazolo[3,4-d]pyrimidin-1-yl)methyl)-5-(3-(2-(2-methoxyethoxy)ethoxy)prop-1-yn-1-yl)-3-(2-(trifluoromethyl)benzyl)quinazolin-4(3H)-one]
- Neutrophil numbers in BALF, % inhibition [1, 5]: 2.3 (9) %
- Neutrophil numbers in BALF, % inhibition [1, 6]: 1.6 (58) %
- Neutrophil numbers in BALF, % inhibition [1, 7]: 33%
- Neutrophil numbers in BALF (mean ± SEM) [1, 8]: 13.6 ± 2.7 ×10^5/mL
- Neutrophil numbers in BALF, % inhibition [1, 8]: 10%
- Neutrophil numbers in BALF, % inhibition [1, 9]: 73%
- IC50 ([2]; read-out: IC50, Cytostim-induced IFNγ in PBMCs): 13.8 nM
- IC50 ([2]; read-out: IC50, Cytostim-induced IL-4 in PBMCs): < 1.4 nM
- IC50 ([2]; read-out: IC50, Cytostim-induced IL-5 in PBMCs): < 1.4 nM
- IC50 ([2]; read-out: IC50, Cytostim-induced IL-13 in PBMCs): < 1.4 nM
- Neutrophil numbers in BALF, % inhibition [3, 5]: 2.5 (19) %
- Neutrophil numbers in BALF, % inhibition [3, 6]: 1.4 (53) %
- Neutrophil numbers in BALF (mean ± SEM) [3, 7]: 9.4 ± 2.0 ×10^5/mL
- Neutrophil numbers in BALF, % inhibition [3, 7]: 45%
- Neutrophil numbers in BALF, % inhibition [3, 8]: 23%
- Neutrophil numbers in BALF, % inhibition [3, 9]: 68%
- Cell numbers in BALF, Eosinophils, % inhibition ([4]; 0.05 mg/mL intra-tracheal): 3.2 (20) %
- Cell numbers in BALF, Neutrophils, % inhibition ([4]; 0.05 mg/mL intra-tracheal): 0.4 (18) %
- Cell numbers in BALF, Eosinophils, % inhibition ([4]; 0.2 mg/mL intra-tracheal): 0.9 (85) %
- Cell numbers in BALF, Neutrophils, % inhibition ([4]; 0.2 mg/mL intra-tracheal): 0.5 (70) %
- Cell numbers in BALF, Eosinophils, % inhibition ([4]; 1 mg/mL intra-tracheal): 91%
- Cell numbers in BALF, Neutrophils, % inhibition ([4]; 1 mg/mL intra-tracheal): 80%

Source: US20170334919A1, “2-((4-AMINO-3-(3-FLUORO-5-HYDROXYPHENYL)-1H-PYRAZOLO[3,4-D]PYRIMIDIN-1 -YL)METHYL)-3-(2-(TRIFLUORO-MET HYL)BENZYL)QUINAZOLIN-4(3H)-ONE DERIVATIVES AND THEIR USE AS PHOSPHOINOSITIDE 3-KINASE INHIBITORS” (RESPIVERT LTD., priority 2013, published 2017)
